Earlier results in patent US8288116B2, “Methods and compositions for isolating metastatic cancer cells, and use in measuring metastatic potential of a cancer thereof” (The Research Foundation of State University of New York, priority 2000, dated 2012).

Test system: patients with cancer
Details: trials in patients with cancer

Molecule	anti-metastatic, anti-invasive effects
angiostatin	not produced obvious evidence
CNC(=O)[C@@H](NC(=O)[C@H](CC(C)C)[C@H](O)C(=O)NO)C(C)(C)C [Marimastat]	not produced obvious evidence
endostatin	not produced obvious evidence
CC1(C)SCCN(S(=O)(=O)c2ccc(Oc3ccncc3)cc2)[C@H]1C(=O)NO [AG3340]	not produced obvious evidence
